# According to patent US10597388B2, “Pyridazinone herbicides” (FMC CORPORATION, priority 2014, dated 2020):
# Tests used:
# Experiment in all cases: Test D controlled growth environment herbicide test, pre- and postemergence
# Format in all cases: in vivo
# [1] = tested on: windgrass (Apera spica-venti)
# Excerpt: (§1) Seeds of plant species selected from bluegrass (annual bluegrass, Poa annua), blackgrass (Alopecurus myosuroides), Canada thistle (Cirsium arvense), canarygrass (Phalaris minor), chickweed (common chickweed, Stellaria media), geranium, cutleaf (cutleaf geranium, Geranium dissectum), galium (catchweed bedstraw, Galium aparine), bromegrass, downy (downy bromegrass, Bromus tectorum), field poppy (Papaver rhoeas), field violet (Viola arvensis), foxtail, green (green foxtail, Setaria viridis), deadnettle (henbit deadnettle, Lamium amplexicaule), ryegrass, Italian (Italian ryegrass, Lolium multiflorum), kochia (Kochia scoparia), lambsquarters (Chenopodium album), oilseed rape (Brassica napus), pigweed (Amaranthus retroflexus), chamomile (scentless chamomile, Matricaria inodora), Russian thistle (Salsola kali), speedwell (bird's-eye speedwell, Veronica persica), barley, spring (spring barley, Hordeum vulgare), wheat, spring (spring wheat, Triticum aestivum), buckwheat, wild (wild buckwheat, Polygonum convolvulus), mustard, wild (wild mustard, Sinapis arvensis), oat, wild (wild oat, Avena fatua), radish, wild (wild radish, Raphanus raphanistrum), windgrass (Apera spica-venti), barley, winter (winter barley, Hordeum vulgare), and wheat, winter (winter wheat, Triticum aestivum) were planted into a silt loam soil and treated preemergence with test chemicals formulated in a non-phytotoxic solvent mixture which included a surfactant.
# (§2) At the same time, these species were planted in pots containing Redi-Earth® planting medium (Scotts Company, 14111 Scottslawn Road, Marysville, Ohio 43041) comprising spaghnum peat moss, vermiculite, wetting agent and starter nutrients and treated with postemergence applications of the test chemicals formulated in the same manner. Plants ranged in height from 2 to 18 cm (1- to 4-leaf stage). Treated plants and controls were maintained in a controlled growth environment for 14 to 21 d after which time all species were compared to controls and visually evaluated. Plant response ratings, summarized in Table D, are based on a scale of 0 to 100 where 0 is no effect and 100 is complete control. A dash (-) response means no test result.
# [2] = tested on: radish, wild (wild radish, Raphanus raphanistrum)
# Excerpt: as §1, §2
# [3] = tested on: canarygrass (Phalaris minor)
# Excerpt: as §1, §2
# [4] = tested on: barley, winter (winter barley, Hordeum vulgare)
# Excerpt: as §1, §2
# [5] = tested on: field poppy (Papaver rhoeas)
# Excerpt: as §1, §2
# [6] = tested on: bluegrass (annual bluegrass, Poa annua)
# Excerpt: as §1, §2
# [7] = tested on: mustard, wild (wild mustard, Sinapis arvensis)
# Excerpt: as §1, §2
# [8] = tested on: wheat, winter (winter wheat, Triticum aestivum)
# Excerpt: as §1, §2
# [9] = tested on: barley, spring (spring barley, Hordeum vulgare)
# Excerpt: as §1, §2
# [10] = tested on: foxtail, green (green foxtail, Setaria viridis)
# Excerpt: as §1, §2
# [11] = tested on: chickweed (common chickweed, Stellaria media)
# Excerpt: as §1, §2
# [12] = tested on: deadnettle (henbit deadnettle, Lamium amplexicaule)
# Excerpt: as §1, §2
# [13] = tested on: ryegrass, Italian (Italian ryegrass, Lolium multiflorum)
# Excerpt: as §1, §2
# [14] = Postemergence, 31 g ai/ha, scale 0 to 100 (0 no effect, 100 complete control)
# [15] = Postemergence, 125 g ai/ha, visual rating on scale 0 (no effect) to 100 (complete control), 14 to 21 d
# [16] = Postemergence, 250 g ai/ha, scale 0 to 100 (0 no effect, 100 complete control)
# [17] = Preemergence, 62 g ai/ha, scale 0 to 100 (0 no effect, 100 complete control)
# [18] = Preemergence, 125 g ai/ha, scale 0 to 100 (0 no effect, 100 complete control)
# [19] = Preemergence, 250 g ai/ha, scale 0 to 100 (0 no effect, 100 complete control)
# [20] = postemergence, 62 g ai/ha, scale 0 to 100, 0 no effect, 100 complete control
smiles,measurement,setting,value
CCOC(=O)Oc1c(C)nn(C)c(=O)c1-c1c(C)ccc2ccccc12 [Compound 73],Windgrass plant response rating,[1]; [14],70
same,"Plant response rating, Windgrass",[1]; [15],75
same,"Plant response rating, Windgrass",[1]; [16],85
same,"Plant response rating (scale of 0 to 100), Windgrass","[1]; Preemergence, 31 g ai/ha",40
same,"Plant response rating, Windgrass",[1]; [17],65
same,"Plant response rating, Windgrass",[1]; [18],90
same,"Plant response rating, Windgrass",[1]; [19],95
same,"Plant response rating, Windgrass",[1]; [20],70
same,"Radish, Wild plant response rating",[2]; [14],75
same,"Plant response rating, Radish, Wild",[2]; [15],100
same,"Plant response rating, Radish, Wild",[2]; [16],100
same,"Plant response rating (scale of 0 to 100), Radish, Wild","[2]; Preemergence, 31 g ai/ha",30
same,"Plant response rating, Radish, Wild",[2]; [17],75
same,"Plant response rating, Radish, Wild",[2]; [18],100
same,"Plant response rating, Radish, Wild",[2]; [19],90
same,"Plant response rating, Radish, Wild",[2]; [20],95
same,Canarygrass plant response rating,[3]; [14],60
same,"Plant response rating, Canarygrass",[3]; [15],80
same,"Plant response rating, Canarygrass",[3]; [16],90
same,"Plant response rating (scale of 0 to 100), Canarygrass","[3]; Preemergence, 31 g ai/ha",80
same,"Plant response rating, Canarygrass",[3]; [17],85
same,"Plant response rating, Canarygrass",[3]; [18],90
same,"Plant response rating, Canarygrass",[3]; [19],100
same,"Plant response rating, Canarygrass",[3]; [20],70
same,"Barley, Winter plant response rating",[4]; [14],15
same,"Plant response rating, Barley, Winter",[4]; [15],20
same,"Plant response rating, Barley, Winter",[4]; [16],35
same,"Plant response rating (scale of 0 to 100), Barley, Winter","[4]; Preemergence, 31 g ai/ha",5
same,"Plant response rating, Barley, Winter",[4]; [17],40
same,"Plant response rating, Barley, Winter",[4]; [18],60
same,"Plant response rating, Barley, Winter",[4]; [19],75
same,"Plant response rating, Barley, Winter",[4]; [20],15
same,Field Poppy plant response rating,[5]; [14],75
same,"Plant response rating, Field Poppy",[5]; [15],100
same,"Plant response rating, Field Poppy",[5]; [16],100
same,"Plant response rating (scale of 0 to 100), Field Poppy","[5]; Preemergence, 31 g ai/ha",70
same,"Plant response rating, Field Poppy",[5]; [17],100
same,"Plant response rating, Field Poppy",[5]; [18],100
same,"Plant response rating, Field Poppy",[5]; [19],100
same,"Plant response rating, Field Poppy",[5]; [20],100
same,Bluegrass plant response rating,[6]; [14],15
same,"Plant response rating, Bluegrass",[6]; [15],55
same,"Plant response rating, Bluegrass",[6]; [16],65
same,"Plant response rating (scale of 0 to 100), Bluegrass","[6]; Preemergence, 31 g ai/ha",15
same,"Plant response rating, Bluegrass",[6]; [17],35
same,"Plant response rating, Bluegrass",[6]; [18],35
same,"Plant response rating, Bluegrass",[6]; [19],30
same,"Plant response rating, Bluegrass",[6]; [20],30
same,"Mustard, Wild plant response rating",[7]; [14],85
same,"Plant response rating, Mustard, Wild",[7]; [15],100
same,"Plant response rating, Mustard, Wild",[7]; [16],100
same,"Plant response rating (scale of 0 to 100), Mustard, Wild","[7]; Preemergence, 31 g ai/ha",65
same,"Plant response rating, Mustard, Wild",[7]; [17],80
same,"Plant response rating, Mustard, Wild",[7]; [18],100
same,"Plant response rating, Mustard, Wild",[7]; [19],100
same,"Plant response rating, Mustard, Wild",[7]; [20],100
same,"Wheat, Winter plant response rating",[8]; [14],25
same,"Plant response rating, Wheat, Winter",[8]; [15],65
same,"Plant response rating, Wheat, Winter",[8]; [16],75
same,"Plant response rating (scale of 0 to 100), Wheat, Winter","[8]; Preemergence, 31 g ai/ha",15
same,"Plant response rating, Wheat, Winter",[8]; [17],40
same,"Plant response rating, Wheat, Winter",[8]; [18],50
same,"Plant response rating, Wheat, Winter",[8]; [19],75
same,"Plant response rating, Wheat, Winter",[8]; [20],35
same,"Barley, Spring plant response rating",[9]; [14],10
same,"Plant response rating, Barley, Spring",[9]; [15],30
same,"Plant response rating, Barley, Spring",[9]; [16],40
same,"Plant response rating (scale of 0 to 100), Barley, Spring","[9]; Preemergence, 31 g ai/ha",0
same,"Plant response rating, Barley, Spring",[9]; [17],10
same,"Plant response rating, Barley, Spring",[9]; [18],0
same,"Plant response rating, Barley, Spring",[9]; [19],60
same,"Plant response rating, Barley, Spring",[9]; [20],25
same,"Foxtail, Green plant response rating",[10]; [14],65
same,"Plant response rating, Foxtail, Green",[10]; [15],75
same,"Plant response rating, Foxtail, Green",[10]; [16],80
same,"Plant response rating (scale of 0 to 100), Foxtail, Green","[10]; Preemergence, 31 g ai/ha",15
same,"Plant response rating, Foxtail, Green",[10]; [17],20
same,"Plant response rating, Foxtail, Green",[10]; [18],50
same,"Plant response rating, Foxtail, Green",[10]; [19],100
same,"Plant response rating, Foxtail, Green",[10]; [20],70
same,Chickweed plant response rating,[11]; [14],90
same,"Plant response rating, Chickweed",[11]; [15],100
same,"Plant response rating, Chickweed",[11]; [16],100
same,"Plant response rating (scale of 0 to 100), Chickweed","[11]; Preemergence, 31 g ai/ha",95
same,"Plant response rating, Chickweed",[11]; [17],90
same,"Plant response rating, Chickweed",[11]; [18],100
same,"Plant response rating, Chickweed",[11]; [19],100
same,"Plant response rating, Chickweed",[11]; [20],95
same,Deadnettle plant response rating,[12]; [14],75
same,"Plant response rating, Deadnettle",[12]; [15],100
same,"Plant response rating, Deadnettle",[12]; [16],100
same,"Plant response rating (scale of 0 to 100), Deadnettle","[12]; Preemergence, 31 g ai/ha",0
same,"Plant response rating, Deadnettle",[12]; [17],0
same,"Plant response rating, Deadnettle",[12]; [18],70
same,"Plant response rating, Deadnettle",[12]; [19],100
same,"Plant response rating, Deadnettle",[12]; [20],90
same,"Ryegrass, Italian plant response rating",[13]; [14],70
same,"Plant response rating, Ryegrass, Italian",[13]; [15],95
same,"Plant response rating, Ryegrass, Italian",[13]; [16],98
same,"Plant response rating (scale of 0 to 100), Ryegrass, Italian","[13]; Preemergence, 31 g ai/ha",95
same,"Plant response rating, Ryegrass, Italian",[13]; [17],100
same,"Plant response rating, Ryegrass, Italian",[13]; [18],100
same,"Plant response rating, Ryegrass, Italian",[13]; [19],100
same,"Plant response rating, Ryegrass, Italian",[13]; [20],85
